Among the data in patent publication US9840498B2, “Substituted quinazolin-4-one derivatives” (NOVARTIS AG, priority 2013, dated 2017) are IC50 values, retold here.

In this assay the target is PI 3-Kinase Gamma (Homo sapiens (Human), UniProt P48736). As to the kind of experiment: Cellular U937 AKT assay for PI 3-kinase gamma. Format: cell-based. As to conditions: U937 cells, MIP1α-stimulated AKT phosphorylation, read-out: Cell PI3K gamma IC50. On the procedure: The U937 monocyte cell line is maintained in a basal medium of RPMI 1640 supplemented with 10% heat inactivated FCS, 100 U/ml Penicillin, 100 ug/ml streptomycin and 2 mM L-glutamine (Invitrogen). U937 suspension culture is maintained by seeding cells at a density of 0.125×10^6 cells per ml in fresh medium every three or four days. Cells are incubated at 37° C., 5% CO2. […] Before beginning the cell manipulations described below, the MSD (Meso Scale Discovery) assay plate is blocked by addition of 150 ul/well blocking buffer supplied and incubated with shaking for a minimum of one hour at room temperature. All steps of the assay must be performed quickly, with accurately timed incubation periods and observing temperature controls where indicated. […] Falcon tube, counted and centrifuged for eight minutes at 300 g at room temperature. Supernatant is aspirated, the cell pellet resuspended and washed once in HBSS (Hank's Balanced Salt Solution) by centrifugation for eight minutes at 300 g at room temperature. The cell pellet is resuspended in HBSS to a concentration of 4×10^6 per ml, and 100 μL of cell suspension added to each well of a flat-bottomed 96-well tissue culture plate. Assay plates are incubated for 1.5 hours at 37° C., 5% CO2 to allow background AKT phosphorylation to reduce before the compound stimulation step. […] Compound concentrations at this stage are 4-times the final concentration required in the assay plate. Cells are stimulated with compound or HBSS 0.8% DMSO by direct transfer of 50 ul/well from the compound dilution plate. The assay plate containing compound-treated cells is then incubated for 30 minutes at 37° C. A standard plate layout is used for all experiments. Compound-treated cells, in addition to positive control wells (“max MIP1α”), are stimulated with 50 μL per well of 40 ng/ml MIP1α (R&D Systems catalogue number 270-LD, lyophilized stock reconstituted to 50 μg/ml with PBS 0.1% BSA). Negative control wells (“min HBSS”), are stimulated with 50 μl/well of HBSS in the absence of MIP1α. […] Cells are incubated with MIP1α for 3 minutes, at 37° C., 5% CO2. After the three minute stimulation period, the assay plate is kept ice cold at all times. Assay plates are centrifuged for 2 minutes at 300 g, 4° C. and supernatant is removed by gently inverting, and then blotting the plate on tissue. Cells are then washed by gentle addition of 150 μL/well of ice cold HBSS and centrifugation at 300 g, for 5 minutes at 4° C. Supernatant is aspirated and the plate blotted as described above. The plate is placed on ice and cells are immediately treated with 35 μL per well of ice cold lysis buffer, prepared according to the kit instructions (per assay plate, to 5 ml of Tris lysis buffer add 100 μl of 50× protease inhibitor solution and 50 μl of each 100× phosphatase inhibitor solutions I and II). Plates are incubated on ice for 20 minutes before centrifugation at 841 g for 5 minutes, 4° C. Block buffer is aspirated from the MSD plate, and the plate washed four times with 300 μl/well Tris wash buffer. 25 μL of cell lysate is then transferred from the assay plate to the washed MSD plate which is sealed and incubated at room temperature for one hour with shaking. The plate is washed four times with 300 μL per well of Tris wash buffer before addition of 25 μL per well of sulfo-tag anti-total AKT/pAKT detection antibody (60 μl of 50× antibody stock is diluted in 1 ml block buffer mixed with 2 ml wash buffer) and incubated at room temperature for one hour with shaking. The plate is washed four times with 300 μl per well of Tris wash buffer and 150 μl per well of Read buffer is added, taking care to avoid the introduction of bubbles. The plate is immediately read using an MSD SECTOR Imager 6000. Results are exported in Excel and the percentage of phosphorylated AKT is calculated using the equation: % Phosphoprotein=((2*Phospho signal)/(Phospho signal+Total signal))*100. […]
Sequence of PI 3-Kinase Gamma (P48736 whole entry): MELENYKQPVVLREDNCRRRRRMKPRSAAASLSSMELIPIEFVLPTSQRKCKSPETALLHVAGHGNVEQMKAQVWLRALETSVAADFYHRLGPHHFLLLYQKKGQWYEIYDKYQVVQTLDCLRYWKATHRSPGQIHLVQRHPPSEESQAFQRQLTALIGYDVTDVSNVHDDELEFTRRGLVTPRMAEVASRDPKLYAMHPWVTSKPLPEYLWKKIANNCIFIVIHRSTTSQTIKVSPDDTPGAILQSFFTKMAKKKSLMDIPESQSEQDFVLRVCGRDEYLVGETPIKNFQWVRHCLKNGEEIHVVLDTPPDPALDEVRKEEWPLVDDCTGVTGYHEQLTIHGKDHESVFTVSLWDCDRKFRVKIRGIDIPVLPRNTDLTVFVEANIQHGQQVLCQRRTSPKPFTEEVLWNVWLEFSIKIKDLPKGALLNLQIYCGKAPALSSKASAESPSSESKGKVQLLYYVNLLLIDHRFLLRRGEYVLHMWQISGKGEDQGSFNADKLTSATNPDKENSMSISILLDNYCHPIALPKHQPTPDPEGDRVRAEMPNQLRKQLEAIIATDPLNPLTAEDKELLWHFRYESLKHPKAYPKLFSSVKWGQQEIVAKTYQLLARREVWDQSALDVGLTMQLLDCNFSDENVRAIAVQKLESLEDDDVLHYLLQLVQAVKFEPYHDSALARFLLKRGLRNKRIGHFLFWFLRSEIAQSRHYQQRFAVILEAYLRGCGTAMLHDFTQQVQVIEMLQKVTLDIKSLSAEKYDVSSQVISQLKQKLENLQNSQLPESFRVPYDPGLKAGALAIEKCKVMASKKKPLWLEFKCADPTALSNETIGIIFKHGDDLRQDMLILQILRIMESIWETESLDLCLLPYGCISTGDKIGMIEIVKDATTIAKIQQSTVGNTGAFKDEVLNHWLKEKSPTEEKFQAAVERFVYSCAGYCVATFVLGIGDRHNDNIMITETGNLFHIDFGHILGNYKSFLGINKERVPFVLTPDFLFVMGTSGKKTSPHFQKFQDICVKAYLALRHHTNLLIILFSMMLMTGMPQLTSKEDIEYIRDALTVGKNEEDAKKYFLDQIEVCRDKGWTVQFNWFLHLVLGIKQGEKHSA
For `COc1ncc(-c2cccc3nc([C@@H]4C[C@H](O)CN4c4nc(N)nc(C)c4C#N)n(-c4ccccc4)c(=O)c23)cn1` [Example 22, 2-Amino-4-((2S,4S)-4-hydroxy-2-(5-(2-methoxypyrimidin-5-yl)-4-oxo-3-phenyl-3,4-dihydroquinazolin-2-yl)pyrrolidin-1-yl)-6-methylpyrimidine-5-carbonitrile], the IC50 stood at 18 nM.

For `Cc1nc(N)nc(N2C[C@@H](O)C[C@H]2c2nc3cccc(-c4cccnc4)c3c(=O)n2-c2ccccc2)c1C#N` [Example 24, 2-Amino-4-((2S,4S)-4-hydroxy-2-(4-oxo-3-phenyl-5-(pyridin-3-yl)-3,4-dihydroquinazolin-2-yl)pyrrolidin-1-yl)-6-methylpyrimidine-5-carbonitrile], the IC50 turned out to be 9 nM.

Regarding `COc1cncc(-c2cccc3nc([C@@H]4C[C@H](O)CN4c4nc(N)nc(C)c4C#N)n(-c4ccccc4)c(=O)c23)c1` [Example 25, 2-Amino-4-((2S,4S)-4-hydroxy-2-(5-(5-methoxypyridin-3-yl)-4-oxo-3-phenyl-3,4-dihydroquinazolin-2-yl)pyrrolidin-1-yl)-6-methylpyrimidine-5-carbonitrile], the IC50 stood at 49 nM.

For the compound `Cc1nc(N)nc(N2C[C@@H](O)C[C@H]2c2nc3cccc(-c4cncnc4)c3c(=O)n2-c2ccccc2)c1C#N` [Example 26, 2-Amino-4-((2S,4S)-4-hydroxy-2-(4-oxo-3-phenyl-5-(pyrimidin-5-yl)-3,4-dihydroquinazolin-2-yl)pyrrolidin-1-yl)-6-methylpyrimidine-5-carbonitrile], the IC50 came out at 170 nM.

As to `COc1ccc(-c2cccc3nc([C@@H]4C[C@H](O)CN4c4nc(N)nc(C)c4C#N)n(-c4ccccc4)c(=O)c23)cn1` [Example 27, 2-Amino-4-((2S,4S)-4-hydroxy-2-(5-(6-methoxypyridin-3-yl)-4-oxo-3-phenyl-3,4-dihydroquinazolin-2-yl)pyrrolidin-1-yl)-6-methylpyrimidine-5-carbonitrile], the IC50 came out at 63 nM.

Consider `Cc1nc(N)nc(N2C[C@@H](O)C[C@H]2c2nc3cccc(-c4cnn(CCO)c4)c3c(=O)n2-c2ccccc2)c1C#N` [Example 28, 2-Amino-4-((2S,4S)-4-hydroxy-2-(5-(1-(2-hydroxyethyl)-1H-pyrazol-4-yl)-4-oxo-3-phenyl-3,4-dihydroquinazolin-2-yl)pyrrolidin-1-yl)-6-methylpyrimidine-5-carbonitrile], for which the IC50 is 120 nM.

Consider `CCOc1ncc(-c2c(F)ccc3nc([C@@H]4C[C@H](O)CN4c4nc(N)nc(C)c4C#N)n(-c4ccccc4)c(=O)c23)cn1` [Example 29, 2-Amino-4-((2S,4S)-2-(5-(2-ethoxypyrimidin-5-yl)-6-fluoro-4-oxo-3-phenyl-3,4-dihydroquinazolin-2-yl)-4-hydroxypyrrolidin-1-yl)-6-methylpyrimidine-5-carbonitrile], for which the IC50 turned out to be 38 nM.

For `Cc1nc(N)nc(N2C[C@@H](F)C[C@H]2c2nc3cccc(-c4cnn(C)c4)c3c(=O)n2-c2ccccc2)c1C#N` [Example 30, 2-Amino-4-((2S,4S)-4-fluoro-2-(5-(1-methyl-1H-pyrazol-4-yl)-4-oxo-3-phenyl-3,4-dihydroquinazolin-2-yl)pyrrolidin-1-yl)-6-methylpyrimidine-5-carbonitrile], the IC50 came to 11 nM.

For the compound `Cc1nc(N)nc(N2C[C@@H](O)C[C@H]2c2nc3ccc(F)c(-c4cn(C)cn4)c3c(=O)n2-c2ccccc2)c1C#N` [Example 31, 2-Amino-4-((2S,4S)-2-(6-fluoro-5-(1-methyl-1H-imidazol-4-yl)-4-oxo-3-phenyl-3,4-dihydroquinazolin-2-yl)-4-hydroxypyrrolidin-1-yl)-6-methylpyrimidine-5-carbonitrile], the IC50 was determined as 240 nM.

Consider `CCOc1ncc(-c2cccc3nc([C@@H]4CCCN4c4nc(N)nc(C)c4C#N)n(-c4ccccc4)c(=O)c23)cn1` [Example 32, (S)-2-Amino-4-(2-(5-(2-ethoxypyrimidin-5-yl)-4-oxo-3-phenyl-3,4-dihydroquinazolin-2-yl)pyrrolidin-1-yl)-6-methylpyrimidine-5-carbonitrile], for which the concentration for half-maximal inhibition (IC50) was determined as 720 nM.

As for `N#Cc1c(N)ncnc1N1CCC[C@H]1c1nc2cccc(C#CCO)c2c(=O)n1-c1ccccc1` [Example 33, (S)-4-Amino-6-(2-(5-(3-hydroxyprop-1-yn-1-yl)-4-oxo-3-phenyl-3,4-dihydroquinazolin-2-yl)pyrrolidin-1-yl)pyrimidine-5-carbonitrile], the IC50 is 120 nM.

As usually defined, the IC50 is the point on the concentration scale where inhibition reaches its midpoint.
